In patent US20160250228A1 (Acerus Pharmaceuticals Corporation, priority 2011, published 2016):

B1: SHBG (protein, UniProt P04278 30-402, looked up)
Sex hormone-binding globulin: LRPVLPTQSAHDPPAVHLSNGPGQEPIAVMTFDLTKITKTSSSFEVRTWDPEGVIFYGDTNPKDDWFMLGLRDGRPEIQLHNHWAQLTVGAGPRLDDGRWHQVEVKMEGDSVLLEVDGEEVLRLRQVSGPLTSKRHPIMRIALGGLLFPASNLRLPLVPALDGCLRRDSWLDKQAEISASAPTSLRSCDVESNPGIFLPPGTQAEFNLRDIPQPHAEPWAFSLDLGLKQAAGSGHLLALGTPENPSWLSLHLQDQKVVLSSGSGPGLDLPLVLGLPLQLKLSMSRVVLSQGSKMKALALPPLGLAPLLNLWAKPQGRLFLGALPGEDSSTSFCLNGLWAQGQRLDVDQALNRSHEIWTHSCPQSPGNGTDASH

Assays:
[1] = reported normal range, cited from earlier work; for Normal Range Max: maximum; for Normal Range Min: minimum
[2] = Baseline (24-hour pre-dose) and normal ranges of endogenous analytes (free/total testosterone, DHT, estradiol, SHBG); details: for Pooled Baseline Max / Pooled Baseline Min: baseline range observed, all cohorts pooled; for Pooled Baseline Max / Baseline Max, Dose Cohort 600 (μg) / Baseline Max, Dose Cohort 1200 (μg) / Baseline Max, Dose Cohort 1800 (μg): maximum; for Pooled Baseline Min / Baseline Min, Dose Cohort 600 (μg) / Baseline Min, Dose Cohort 1200 (μg) / Baseline Min, Dose Cohort 1800 (μg): minimum; for Baseline Max, Dose Cohort 600 (μg) / Baseline Min, Dose Cohort 600 (μg) / Baseline Max, Dose Cohort 1200 (μg) / Baseline Min, Dose Cohort 1200 (μg) / Baseline Max, Dose Cohort 1800 (μg) / Baseline Min, Dose Cohort 1800 (μg): baseline range; for Baseline Max, Dose Cohort 600 (μg) / Baseline Min, Dose Cohort 600 (μg): 600 μg dose cohort; for Baseline Max, Dose Cohort 1200 (μg) / Baseline Min, Dose Cohort 1200 (μg): 1200 μg dose cohort; for Baseline Max, Dose Cohort 1800 (μg) / Baseline Min, Dose Cohort 1800 (μg): 1800 μg dose cohort
[3] = General properties of testosterone: stability; assay type: physicochemical; details: in air

Molecule | Normal Range Max [1] | Normal Range Min [1] | Pooled Baseline Max [2] | Pooled Baseline Min [2] | Baseline Max, Dose Cohort 600 (μg) [2] | Baseline Min, Dose Cohort 600 (μg) [2] | Baseline Max, Dose Cohort 1200 (μg) [2] | Baseline Min, Dose Cohort 1200 (μg) [2] | Baseline Max, Dose Cohort 1800 (μg) [2] | Baseline Min, Dose Cohort 1800 (μg) [2] | Stability [3]
C[C@]12CCC(=O)C[C@@H]1CC[C@@H]1[C@@H]2CC[C@]2(C)[C@@H](O)CC[C@@H]12 [Dihydrotestosterone] | 22.00 ng/dL | 4.00 ng/dL | 32.60 ng/dL | 5.02 ng/dL | 22.10 ng/dL | 5.29 ng/dL | 25.30 ng/dL | 5.04 ng/dL | 32.60 ng/dL | 5.02 ng/dL | –
C[C@]12CC[C@@H]3c4ccc(O)cc4CC[C@H]3[C@@H]1CC[C@@H]2O [Estradiol] | – | – | 12.2 ng/dL | 1.7 ng/dL | 12.2 ng/dL | 2.09 ng/dL | 11.9 ng/dL | 1.7 ng/dL | 9.74 ng/dL | 1.77 ng/dL | –
C[C@]12CC[C@H]3[C@@H](CCC4=CC(=O)CC[C@@]43C)[C@@H]1CC[C@@H]2O [Testosterone, 17β-Hydroxyandrost-4-en-3-one] | – | – | – | – | – | – | – | – | – | – | powder. It is odourless, and stable in air.
B1 | 114.00 nmol/L | 18.00 nmol/L | 137.00 nmol/L | 15.30 nmol/L | 102.00 nmol/L | 15.30 nmol/L | 86.70 nmol/L | 16.00 nmol/L | 137.00 nmol/L | 25.20 nmol/L | –
